According to ChEMBL document CHEMBL3856229, “Hybrid Antibiotic Overcomes Resistance in P. aeruginosa by Enhancing Outer Membrane Penetration and Reducing Efflux” (J Med Chem, 2016):
Converted amounts (≈) assume the structure as drawn.

Tests used:
Type in all cases: functional
[1] = tested on: Pseudomonas aeruginosa; assay: Antibacterial activity against multidrug-resistant/tobramycin-susceptible Pseudomonas aeruginosa isolate 86052
[2] = tested on: Staphylococcus aureus; assay: Antibacterial activity against Staphylococcus aureus ATCC 29213 after 24 hrs by microtitre broth dilution method; conditions: ATCC 29213, 24 h
[3] = tested on: Staphylococcus aureus; assay: Antibacterial activity against methicillin-resistant Staphylococcus aureus ATCC 33592 after 24 hrs by microtitre broth dilution method; conditions: ATCC 33592, 24 h
[4] = tested on: Staphylococcus epidermidis; assay: Antibacterial activity against methicillin-susceptible Staphylococcus epidermidis isolate CANWARD-2008 81388 after 24 hrs by microtitre broth dilution method; conditions: isolate CANWARD-2008 81388, 24 h
[5] = tested on: Staphylococcus epidermidis; assay: Antibacterial activity against methicillin-resistant Staphylococcus epidermidis isolate CAN-ICU 61589 after 24 hrs by microtitre broth dilution method; conditions: isolate CAN-ICU 61589, 24 h
[6] = tested on: Enterococcus faecalis; assay: Antibacterial activity against Enterococcus faecalis ATCC 29212 after 24 hrs by microtitre broth dilution method; conditions: ATCC 29212, 24 h
[7] = tested on: Enterococcus faecium; assay: Antibacterial activity against Enterococcus faecium ATCC 27270 after 24 hrs by microtitre broth dilution method; conditions: ATCC 27270, 24 h
[8] = tested on: Streptococcus pneumoniae; assay: Antibacterial activity against Streptococcus pneumoniae ATCC 49619 after 24 hrs by microtitre broth dilution method; conditions: ATCC 49619, 24 h
[9] = tested on: Escherichia coli; assay: Antibacterial activity against gentamicin-resistant Escherichia coli isolate CAN-ICU 61714 after 24 hrs by microtitre broth dilution method; conditions: isolate CAN-ICU 61714, 24 h
[10] = tested on: Escherichia coli; assay: Antibacterial activity against amikacin-resistant Escherichia coli isolate CAN-ICU 63074 after 24 hrs by microtitre broth dilution method; conditions: isolate CAN-ICU 63074, 24 h
[11] = tested on: Escherichia coli; assay: Antibacterial activity against gentamicin/tobramycin/ciprofloxacin-resistant Escherichia coli isolate CANWARD-2011 97615 harboring AAC3-2A after 24 hrs by microtitre broth dilution method; conditions: isolate CANWARD-2011 97615, 24 h
[12] = tested on: Pseudomonas aeruginosa; assay: Antibacterial activity against Pseudomonas aeruginosa ATCC 27853 after 24 hrs by microtitre broth dilution method; conditions: ATCC 27853, 24 h
[13] = tested on: Pseudomonas aeruginosa; assay: Antibacterial activity against gentamicin/tobramycin-resistant Pseudomonas aeruginosa isolate CANWARD-2011 96846 after 24 hrs by microtitre broth dilution method; conditions: isolate CANWARD-2011 96846, 24 h
[14] = tested on: Stenotrophomonas maltophilia; assay: Antibacterial activity against Stenotrophomonas maltophilia isolate CAN-ICU 62584 after 24 hrs by microtitre broth dilution method; conditions: isolate CAN-ICU 62584, 24 h
[15] = tested on: Acinetobacter baumannii; assay: Antibacterial activity against Acinetobacter baumannii isolate CAN-ICU 63169 after 24 hrs by microtitre broth dilution method; conditions: isolate CAN-ICU 63169, 24 h
[16] = tested on: Klebsiella pneumoniae; assay: Antibacterial activity against Klebsiella pneumoniae ATCC 13883 after 24 hrs by microtitre broth dilution method; conditions: ATCC 13883, 24 h
[17] = tested on: Pseudomonas aeruginosa; assay: Antibacterial activity against multidrug/extremely drug-resistant/colistin-susceptible Pseudomonas aeruginosa isolate 100036
[18] = tested on: Pseudomonas aeruginosa; assay: Antibacterial activity against multidrug/extremely drug-resistant/colistin-susceptible Pseudomonas aeruginosa isolate 101885
[19] = tested on: Pseudomonas aeruginosa; assay: Antibacterial activity against multidrug/extremely drug-resistant/colistin-susceptible Pseudomonas aeruginosa isolate 259-96918
[20] = tested on: Pseudomonas aeruginosa; assay: Antibacterial activity against multidrug/extremely drug-resistant/colistin-susceptible Pseudomonas aeruginosa isolate 260-97103
[21] = tested on: Pseudomonas aeruginosa; assay: Antibacterial activity against multidrug/extremely drug-resistant/colistin-susceptible Pseudomonas aeruginosa isolate 262-101856
[22] = tested on: Pseudomonas aeruginosa; assay: Antibacterial activity against multidrug/extremely drug-resistant/colistin-susceptible Pseudomonas aeruginosa isolate 264-104354
[23] = tested on: Pseudomonas aeruginosa; assay: Antibacterial activity against pandrug-resistant Pseudomonas aeruginosa isolate 91433
[24] = tested on: Pseudomonas aeruginosa; assay: Antibacterial activity against Pseudomonas aeruginosa PAO1
[25] = tested on: Pseudomonas aeruginosa; assay: Antibacterial activity against multidrug-resistant/tobramycin-susceptible Pseudomonas aeruginosa isolate 86053
[26] = tested on: Pseudomonas aeruginosa; assay: Antibacterial activity against multidrug-resistant/tobramycin-susceptible Pseudomonas aeruginosa isolate 86067
[27] = tested on: Pseudomonas aeruginosa; assay: Antibacterial activity against multidrug-resistant/tobramycin-susceptible Pseudomonas aeruginosa isolate 86079
[28] = tested on: Pseudomonas aeruginosa; assay: Antibacterial activity against multidrug-resistant/tobramycin-susceptible Pseudomonas aeruginosa isolate 83182
[29] = tested on: Escherichia coli; assay: Antibacterial activity against Escherichia coli ATCC 25922 after 24 hrs by microtitre broth dilution method; conditions: ATCC 25922, 24 h
[30] = tested on: Pseudomonas aeruginosa; assay: Antibacterial activity against pandrug-resistant Pseudomonas aeruginosa isolate 101243
[31] = tested on: Pseudomonas aeruginosa; assay: Antibacterial activity against multidrug-resistant/tobramycin-susceptible Pseudomonas aeruginosa isolate 86141
[32] = tested on: Pseudomonas aeruginosa; assay: Antibacterial activity against multidrug-resistant/tobramycin-susceptible Pseudomonas aeruginosa isolate 92014
[33] = tested on: Pseudomonas aeruginosa; assay: Antibacterial activity against multidrug-resistant/tobramycin-susceptible Pseudomonas aeruginosa isolate 108590
[34] = tested on: Pseudomonas aeruginosa; assay: Antibacterial activity against multidrug-resistant/tobramycin-susceptible Pseudomonas aeruginosa isolate 79199
[35] = tested on: Pseudomonas aeruginosa; assay: Antibacterial activity against multidrug-resistant/tobramycin-susceptible Pseudomonas aeruginosa isolate 80621
[36] = tested on: Pseudomonas aeruginosa; assay: Antibacterial activity against multidrug-resistant/tobramycin-susceptible Pseudomonas aeruginosa isolate 84745
[37] = tested on: Pseudomonas aeruginosa; assay: Antibacterial activity against multidrug-resistant/tobramycin-susceptible Pseudomonas aeruginosa isolate 85322
[38] = tested on: Pseudomonas aeruginosa; assay: Induction of cytoplasmic membrane depolarization in Pseudomonas aeruginosa PAO1 by DiSC3(5) dye based fluorescence assay

Molecule	MIC [1] [µg/mL]	MIC [17] [µg/mL]	MIC [18] [µg/mL]	MIC [19] [µg/mL]	MIC [20] [µg/mL]	MIC [21] [µg/mL]	MIC [22] [µg/mL]	MIC [23] [µg/mL]	MIC [25] [µg/mL]	MIC [26] [µg/mL]	MIC [27] [µg/mL]	MIC [28] [µg/mL]	MIC [30] [µg/mL]	MIC [31] [µg/mL]	MIC [32] [µg/mL]	MIC [33] [µg/mL]	MIC [34] [µg/mL]	MIC [35] [µg/mL]	MIC [36] [µg/mL]	MIC [37] [µg/mL]	also measured
O=C(O)c1cn(C2CC2)c2cc(N3CCNCC3)c(F)cc2c1=O [CIPROFLOXACIN]	> 16	64 (≈ 193 µM)	32 (≈ 96.6 µM)	256 (≈ 773 µM)	16 to 64 (≈ 48.3 to 193 µM)	16 to 32 (≈ 48.3 to 96.6 µM)	16 to 32 (≈ 48.3 to 96.6 µM)	4 to 8 (≈ 12.1 to 24.1 µM)	> 16	4 (≈ 12.1 µM)	> 16	4 (≈ 12.1 µM)	–	–	–	–	–	–	–	–	MIC [2]: ≤ 0.25 µg/mL; MIC [3]: ≤ 0.25 µg/mL; MIC [4]: ≤ 0.25 µg/mL; MIC [5]: 128 µg/mL (≈ 386 µM); MIC [6]: 1 µg/mL (≈ 3.02 µM); MIC [7]: 8 µg/mL (≈ 24.1 µM); MIC [8]: 1 µg/mL (≈ 3.02 µM); MIC [9]: ≤ 0.25 µg/mL; MIC [10]: ≤ 0.25 µg/mL; MIC [11]: 256 µg/mL (≈ 773 µM); MIC [12]: 1 µg/mL (≈ 3.02 µM); MIC [13]: 4 µg/mL (≈ 12.1 µM); MIC [14]: 32 µg/mL (≈ 96.6 µM); MIC [15]: 2 µg/mL (≈ 6.04 µM); MIC [16]: ≤ 0.25 µg/mL; MIC [24]: < 0.2 µg/mL; MIC [29]: ≤ 0.25 µg/mL
C[C@@H](O)[C@H]1C(=O)N2C(C(=O)O)=C(S[C@@H]3CN[C@H](CNS(N)(=O)=O)C3)[C@H](C)[C@H]12 [DORIPENEM]	–	5 (≈ 11.9 µM)	0.5 (≈ 1.19 µM)	> 32	32 (≈ 76.1 µM)	8 (≈ 19 µM)	16 (≈ 38 µM)	8 (≈ 19 µM)	–	–	–	–	16 (≈ 38 µM)	–	–	–	–	–	–	–	–
C[C@H]1c2cccc(O)c2C(=O)C2=C(O)[C@]3(O)C(=O)C(C(N)=O)=C(O)[C@@H](N(C)C)[C@@H]3[C@@H](O)[C@@H]21.O [DOXYCYCLINE]	–	> 32	> 32	> 32	32	> 32	> 32	32	–	–	–	–	8	–	–	–	–	–	–	–	–
C[C@@H](O)[C@H]1C(=O)N2C(C(=O)O)=C(SCCNC=N)C[C@H]12 [IMIPENEM ANHYDROUS]	32 (≈ 107 µM)	–	–	–	–	–	–	–	16 (≈ 53.4 µM)	> 32	16 (≈ 53.4 µM)	16 (≈ 53.4 µM)	–	16 (≈ 53.4 µM)	8 (≈ 26.7 µM)	32 (≈ 107 µM)	4 (≈ 13.4 µM)	32 (≈ 107 µM)	16 (≈ 53.4 µM)	32 (≈ 107 µM)	–
C[C@@H](O)[C@H]1C(=O)N2C(C(=O)O)=C(S[C@@H]3CN[C@H](C(=O)N(C)C)C3)[C@H](C)[C@H]12 [MEROPENEM]	8 (≈ 20.9 µM)	4 (≈ 10.4 µM)	1 (≈ 2.61 µM)	> 32	16 (≈ 41.7 µM)	32 (≈ 83.4 µM)	> 32	8 (≈ 20.9 µM)	> 32	> 32	32 (≈ 83.4 µM)	16 (≈ 41.7 µM)	16 (≈ 41.7 µM)	16 (≈ 41.7 µM)	8 (≈ 20.9 µM)	8 (≈ 20.9 µM)	16 (≈ 41.7 µM)	16 (≈ 41.7 µM)	16 (≈ 41.7 µM)	16 (≈ 41.7 µM)	–
COLISTIN	1	2	1	1	1	2	1	4	1	0.5	1	1	1020	1	1	1	1	2	2	1	MIC [24]: 1 µg/mL; Activity [38]: Dose-dependent effect
GENTAMICIN	4	> 32	> 0.5	> 32	> 32	> 32	> 32	32	4	> 32	8	4	> 32	8	4	16	4	16	8	4	–
